Source: patent US5221675A, “Aza-spirocyclic compounds that enhance cholinergic neurotransmission” (Abbott Laboratories, priority 1991, dated 1993)

How the values were obtained:
[1] = rat; cited from earlier work
[2] = tested on: DBA mice; experiment: Inhibitory (passive) avoidance test, 72 hour retention; assay type: in vivo, mouse
Text: The inhibitory (or sometimes called passive) avoidance (IA) test is a well accepted animal model of learning/memory used to assess the activity of novel muscarinic agonists to enhance cognitive function (Wanibuchi et al., Eur. J. Pharmacol., 1990, 187:479). Animals are placed in the illuminated (12×14×11 cm) portion of a two-chambered box, from which they enter through a guillotine door to the larger (24×13.5×12 cm) dark compartment of the box. Entry to the dark compartment is accompanied by a mild (0.5 mA), brief (2 seconds) footshock. Initial latencies to cross are recorded, with an imposed 60 second ceiling. Following a 72 hour retention interval, animals are returned to the illuminated chamber, and latency to return to the dark compartment is again recorded, with a ceiling of 180 seconds. No footshock is administered on the test day.
Previous studies have indicated a retention deficit in DBA versus CD1 mice in the 72 hour retention model. Accordingly, adult male DBA mice (n=~15/group) were injected with either the compound of Example 1 or the reference standard RS-86 (0, 0.3, 1.0, or 3.0 mg/kg, i.p.) approximately 45 minutes prior to the training described above. Saline-treated adult male CD1 mice (n=15) served as controls.

[3] = tested on: DBA and C57BL/6 mice; experiment: Mouse plus (water) maze, spatial learning; assay type: in vivo; conditions: 0.3 or 1.0 mg/kg i.p.
Protocol: The mouse plus maze probes spatial learning processes (Decker and McGaugh, Brain Res. 1989, 477:29). Animals are placed at the terminus of one arm of a four-arm maze submerged in opaque (powdered milk) 25° C. water. Their task is to locate a stationary escape platform hidden at the end of one arm of the maze. The platform remains in the same position across all 4 days of testing. Six daily trials are conducted, during which choice accuracy (correct or incorrect) and latency to escape (maximum=60 seconds) are recorded. Animals failing to escape within 60 seconds are gently guided to the platform, where they are allowed to sit for 20 seconds.
Accordingly, adult male DBA and C57 mice (n=~10/group) were treated with the compound of Example 1 or RS-86 (0, 0.3, or 1.0 mg/kg, i.p.) approximately 45 minutes prior to 4 consecutive daily water maze sessions. Choice accuracy was assessed daily, with day 4 accuracy serving as the primary measure of learning.

[4] = tested on: CD1 mice; experiment: Locomotor activity in automated activity monitors; assay type: in vivo, mouse
Protocol: Adult male CD1 mice (n=8/group) were injected with the compound of Example 1 or RS-86 (0, 0.3, 1.0, or 3.0 mg/kg, i.p.) approximately 45 minutes prior to placement in automated activity monitors (Omnitech; Columbus, Ohio). These enclosures, measuring 40×40×42 cm, are equipped with a series of photocells and generate measurements of a variety of locomotor activities.

[5] = tested on: male CD1 mice; experiment: Toxicology / side-effects; assay type: in vivo; conditions: for Fatalities: 0.3, 1.0, 3.0 mg/kg i.p.; for Tolerability: 0.3 and 1.0 mg/kg i.p.
[6] = tested on: cholinergic receptors located in the heart and cortical tissues; conditions: words; cited from earlier work
[7] = tested on: cardiac receptors; conditions: cited from earlier work
[8] = tested on: cortical receptors; conditions: cited from earlier work
[9] = in vivo, cited from earlier work
[10] = tested on: rats; conditions: acutely and chronically administered; cited from earlier work
[11] = tested on: acetylcholine receptors; conditions: chronic administration; cited from earlier work
[12] = tested on: nigro-striatal dopamine system; conditions: chronically administered, after destruction of nigro-striatal dopamine system; cited from earlier work
[13] = tested on: rat brain receptor sites; conditions: cited from earlier work
[14] = tested on: parietotemporal cortex of humans; conditions: cited from earlier work
[15] = target: T1, M1 muscarinic receptor (Rattus norvegicus, UniProt P08482); experiment: Competition with [3H]pirenzepine at cortical M1 muscarinic receptors; assay type: binding; conditions: Table 1; [3H]pirenzepine, rat fronto-parietal cortex, 25° C., pH 7.4; read-out: Ki @ M1 RECEPTOR
T1 construct: from tissue; host or cells: adult rat fronto-parietal cortex membranes (homogenate)
T1 sequence (P08482 1-460): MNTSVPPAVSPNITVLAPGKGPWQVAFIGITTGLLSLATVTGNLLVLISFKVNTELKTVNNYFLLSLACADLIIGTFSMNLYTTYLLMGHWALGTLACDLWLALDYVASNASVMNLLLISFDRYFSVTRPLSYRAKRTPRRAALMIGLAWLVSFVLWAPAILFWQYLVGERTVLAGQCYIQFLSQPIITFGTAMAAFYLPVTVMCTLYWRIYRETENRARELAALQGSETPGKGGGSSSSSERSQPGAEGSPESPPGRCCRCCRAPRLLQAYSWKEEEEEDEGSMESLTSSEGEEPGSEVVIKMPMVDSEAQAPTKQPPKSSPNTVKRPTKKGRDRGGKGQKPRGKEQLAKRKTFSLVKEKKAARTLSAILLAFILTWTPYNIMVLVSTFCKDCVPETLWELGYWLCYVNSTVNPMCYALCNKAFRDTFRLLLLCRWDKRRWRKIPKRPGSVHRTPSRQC

[16] = target: M2 muscarinic receptor (Rattus norvegicus, UniProt P10980); assay type: binding; conditions: read-out: Ki @ M2 RECEPTOR; Table 1; [3H]QNB, rat pons-medulla, 25° C., pH 7.4
[17] = tested on: Rat striatal muscarinic receptors; experiment: Agonist intrinsic activity: inhibition of forskolin-activated [3H]cAMP in dissociated rat striatum; assay type: cell-based
Text: Rat striatal muscarinic receptors are coupled to the inhibition of the conversion of adenosine triphosphate (ATP) to cyclic adenosine monophosphate (cAMP). […] The ATP stores in dissociated rat striatum were labeled with [^3 H]adenine and [^3 H]-cAMP levels were elevated with 10 um forskolin.

[18] = tested on: muscarinic receptors; experiment: Initial screening at muscarinic receptors; assay type: binding; conditions: words, on Table 1 data

Chain of M2 muscarinic receptor (P10980 whole entry): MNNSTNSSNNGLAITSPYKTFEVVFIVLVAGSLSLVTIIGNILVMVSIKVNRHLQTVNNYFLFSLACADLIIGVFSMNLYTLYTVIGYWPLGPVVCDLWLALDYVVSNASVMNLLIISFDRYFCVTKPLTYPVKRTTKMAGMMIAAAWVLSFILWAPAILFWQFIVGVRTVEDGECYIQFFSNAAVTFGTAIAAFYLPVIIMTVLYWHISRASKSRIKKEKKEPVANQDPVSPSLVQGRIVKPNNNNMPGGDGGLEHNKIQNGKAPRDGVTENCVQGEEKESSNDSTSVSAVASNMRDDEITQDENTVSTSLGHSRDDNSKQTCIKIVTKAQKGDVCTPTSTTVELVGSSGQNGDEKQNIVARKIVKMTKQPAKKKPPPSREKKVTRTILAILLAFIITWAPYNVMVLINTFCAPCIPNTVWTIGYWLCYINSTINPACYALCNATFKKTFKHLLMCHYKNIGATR

## O=C1NC(=O)C2(CCNCC2)N1c1ccccc1 [1-phenyl-1,3,8-triazaspiro[4,5]decan-2,4-dione]
[1]
  Metabolite of fluspirilene: major product of the metabolism of the neuroleptic drug, fluspirilene

## CCN1C(=O)CC2(CCN(C)CC2)C1=O [RS-86]
[2]; 3.0 mg/kg i.p.
  Animals that completely failed to cross to the dark compartment in training: nine
[2]; 3.0 mg/kg i.p., F (4,72)=25.8, p<0.00001
  Training latencies relative to all other groups: elevated relative to all other groups
[2]; RS-86 0.3-3.0 mg/kg i.p.
  72 hour retention deficit of untreated DBAs: apparently eliminated the 72 hour retention deficit
[3]
  Water maze performance in DBA or C57 mice: no beneficial effect on water maze performance
[4]; 3.0 mg/kg i.p., F (3,28)=29.17, p<0.00001
  Horizontal activity: profound and significant [F (3,28)=29.17, p<0.00001] reduction in horizontal activity
[4]; 0.3 or 1.0 mg/kg i.p.
  Activity versus animals dosed with the compound of Example 1: did not significantly differ
[5]; 3.0 mg/kg i.p.
  Classic signs of cholinostimulation: salivation, lacrimation, urination, defecation, and tremor
  Hypothermic response versus similar dose of Example 1: greater hypothermic response
  Signs observed: dyspnea and decreased activity
[5]
  Fatalities: No fatalities
  Tolerability: well tolerated
[6]
  Potency and selectivity: poor potency and lack of selectivity
[7]
  Agonism at cardiac receptors: full agonist
[8]
  Agonism at cortical receptors: partial agonist

## CN1CCC[C@H]1c1cccnc1 [nicotine]
[9]; po
  Oral bioavailability: poor oral bioavailability
[9]
  Pharmacokinetics: unfavorable pharmacokinetics
[10]
  Cognitive function: enhance cognitive function in rats
[11]
  Effect on affinity of acetylcholine for the receptor: without affecting the affinity of acetylcholine for the receptor
  Up-regulation of the number of acetylcholine receptors: 50-100%
[12]
  Action on neuronal and vascular functions: regenerative/protective action

## CC1CCCCN1 (racemic) [(+)isomer of (±)2-methylpiperidine, (+)2-methylpiperidine]
[13]
  Binding of nicotinic ligand: enhances the binding of nicotinic ligand

## CNC1(C)C2CCC(C2)C1(C)C (stereo not drawn) [mecamylamine]
[14]
  Resting cortical perfusion: reduce resting cortical perfusion

## CC1OC2(CCN(C)CC2)CN1C=O.O=C(O)C(=O)O (stereo not drawn) [Example 1, 2,8-Dimethyl-1-oxa-3-formyl-3,8-diazaspiro[4,5]decane hydrogen oxalate]
[15]
  Ki: 32 µM
[16]
  Ki: 30 µM
[17]; Rattus norvegicus, read-out: INTRINSIC ACTIVITY (% relative to carbacol)
  Emax: 53%
[17]; rat striatum
  Agonist character at central muscarinic receptor: central muscarinic receptor agonist with partial agonist activity
[2]; 0, 0.3, 1.0, 3.0 mg/kg i.p., DBA mice
  Latencies across dose groups: latencies were equivalent across all groups
[2]; 1.0 mg/kg i.p., U=171.5, z=2.04, p<0.05
  72 hour retention deficit of DBA mice: significant attenuation of the observed retention deficit
[2]; 3.0 mg/kg i.p., U=172, z=2.0, p<0.05
  72 hour retention deficit of DBA mice: significant attenuation of the observed retention deficit
[3]
  Enhancement of learning (choice accuracy): modest, albeit statistically non-significant, enhancement of learning
[3]; from second day of testing
  Performance of DBA mice versus chance level: consistently performed above chance levels
[4]; all doses (0, 0.3, 1.0, 3.0 mg/kg i.p.)
  Mean horizontal activity counts: equivalent across all doses
[4]; compared with RS-86
  Separation of hypoactivity from cognitive enhancement versus RS-86: more favorable separation of hypoactivity from the desired activity of cognitive enhancement
[5]; 3.0 mg/kg i.p.
  Signs observed: some dyspnea and a mild decrease in spontaneous activity
[5]
  Fatalities: No fatalities
  Tolerability: well tolerated
[5]; compared with RS-86
  Side-effects in general versus RS-86: more benign side-effects
[18]
  Binding to M1 and M2 muscarinic receptors: binds to both M1 and M2 muscarinic receptors
